1 molecule from US11883517B2, “External dermal composition and method for beautifying skin” (National Tsing Hua University, priority 2021, dated 2024) can be followed below.

This data set has as its system EpiDerm™ SIT (EPI-200). Briefly: Skin irritation test, OECD 439. The following applies: test group 50 μM, positive control 5% solution, average of 3 repeats. The procedure: In the present evaluation, the EpiDerm™ SIT (EPI-200) was used for skin irritation tests following the OECD 439 test guidelines.
In the skin irritation test, the double nitrosyl-iron complex at a concentration of 50 μM was used as the test group, Dulbecco's Phosphate-Buffered Saline (DPBS) was used as the negative control group, and 5% of sodium dodecyl sulfate (SDS) solution was used as a positive control group. The test was repeated 3 times, and the average value was used for evaluation.

As to `CCCCCCCCCCCCOS(=O)(=O)[O-].[Na+]` [sodium dodecyl sulfate (SDS), sodium dodecyl sulfate], the tissue survival rate was found to be 15.11%.
